# Test results reported in PubChem BioAssay (NCI).
#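 96-well plates; 48 h exposure; 5 concentrations. Endpoints by linear interpolation between flanking doses. Not reached: highest tested concentration assigned. Here, GI50 denotes the concentration required for 50% inhibition of growth. At the TGI there is no net growth.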
# How the values were obtained:
# Assay in all cases: NCI-60 cell line screen, 48 h
# A498 renal = test system: A498 renal
# A549 NSCLC = test system: A549 NSCLC
# HOP-62 NSCLC = test system: HOP-62 NSCLC
# HOP-92 NSCLC = test system: HOP-92 NSCLC
# NCI-H23 lung = test system: NCI-H23 lung
# NCI-H460 lung = test system: NCI-H460 lung
# RPMI-8226 leukemia = test system: RPMI-8226 leukemia
# SK-MEL-2 melanoma = test system: SK-MEL-2 melanoma
# U251 CNS = test system: U251 CNS
# DU-145 prostate = test system: DU-145 prostate
# SN12C renal = test system: SN12C renal
# HS 578T breast = test system: HS 578T breast
SMILES,TGI (A498 renal),TGI (A549 NSCLC),TGI (HOP-62 NSCLC),TGI (HOP-92 NSCLC),TGI (NCI-H23 lung),TGI (NCI-H460 lung),TGI (RPMI-8226 leukemia),TGI (SK-MEL-2 melanoma),TGI (U251 CNS),TGI (DU-145 prostate),TGI (SN12C renal),GI50 (A498 renal),GI50 (RPMI-8226 leukemia),TGI (HS 578T breast)
CSCCC(C(=O)O)N(CC1(O)OCC(O)C(O)C1O)N=O (stereo unspecified),> 100 µM,> 100 µM,> 100 µM,> 100 µM,> 100 µM,> 100 µM,> 100 µM,> 100 µM,> 100 µM,,,,,
O=c1c2cc(I)ccc2nc(-c2cccs2)n1/N=C/c1ccccc1,,> 100 µM,> 100 µM,> 100 µM,> 100 µM,> 100 µM,> 100 µM,> 100 µM,> 100 µM,> 100 µM,> 100 µM,,,
O=c1c([OH2+])c(-c2ccc(O)cc2[O-])oc2cc(O)cc([O-])c12.O=c1c([OH2+])c(-c2ccc(O)cc2[O-])oc2cc(O)cc([O-])c12.[Ti+4],> 100 µM,> 100 µM,> 100 µM,,> 100 µM,> 100 µM,> 100 µM,> 100 µM,,,> 100 µM,> 100 µM,> 100 µM,
COc1ccc(-c2cc(=O)c3c(O)cc(O)cc3o2)c(OC)c1OC,,> 100 µM,> 100 µM,> 100 µM,> 100 µM,,> 100 µM,> 100 µM,,,> 100 µM,,,
CC1=C2C3OC(=O)C(C)C3CCC2(C)C=CC1=Nc1ccccc1 (stereo unspecified),> 100 µM,> 100 µM,> 100 µM,> 100 µM,> 100 µM,> 100 µM,,> 100 µM,> 100 µM,,> 100 µM,,,
N/C(=N\S(=O)(=O)c1cc(Cl)c(Oc2ccc([N+](=O)[O-])cc2Cl)c(Cl)c1)Nc1ccc(Cl)cc1,29.4 µM,35.9 µM,,32.3 µM,32.1 µM,40.1 µM,,36.2 µM,29.6 µM,35.8 µM,33.3 µM,,,> 100 µM
CCO/C(Cc1ccc(Cl)cc1)=N/NC(N)=S,> 100 µM,> 100 µM,> 100 µM,> 100 µM,> 100 µM,> 100 µM,,> 100 µM,> 100 µM,> 100 µM,> 100 µM,,,> 100 µM
C=C1Cc2cc(OC)c(OC)c(OC)c2-c2ccc(SC)c(=O)cc21,0.421 µM,19.5 µM,7.8 µM,3.7 µM,2.11 µM,< 0.035 µM,14.7 µM,< 0.01 µM,,,1.6 µM,,,
CC(=O)OCC1OC(n2nc(Cc3ccccc3)c(=S)[nH]c2=S)C(OC(C)=O)C(OC(C)=O)C1OC(C)=O (stereo unspecified),> 100 µM,> 100 µM,51.4 µM,40.6 µM,44.6 µM,> 100 µM,,35.1 µM,73.4 µM,64.3 µM,55.3 µM,,,45.4 µM
CN(C(=O)c1ccco1)C(=S)N1CCN(c2ccccn2)CC1,,> 100 µM,> 100 µM,> 100 µM,> 100 µM,> 100 µM,> 100 µM,> 100 µM,> 100 µM,,> 100 µM,,,
O=P(O)(CN1CCN(CP(=O)(O)c2ccccc2)CCN(CP(=O)(O)c2ccccc2)CC1)c1ccccc1,88.6 µM,> 100 µM,> 100 µM,,> 100 µM,> 100 µM,> 100 µM,,> 100 µM,> 100 µM,,,,
COc1cc(C2c3c(ccc4ccccc34)C(=O)C3CCC(=O)N32)cc(OC)c1O (stereo unspecified),> 25 µM,> 25 µM,> 25 µM,> 25 µM,> 25 µM,> 25 µM,> 25 µM,> 25 µM,> 25 µM,> 25 µM,> 25 µM,,,
Cc1csc(NNC(=O)Nc2ccccc2)n1,> 100 µM,> 100 µM,> 100 µM,,> 100 µM,> 100 µM,> 100 µM,> 100 µM,> 100 µM,> 100 µM,> 100 µM,,,> 100 µM
CCCN(CCC)C1=Nc2ccccc2-n2cnnc2C1,,> 100 µM,> 100 µM,,> 100 µM,> 100 µM,> 100 µM,> 100 µM,> 100 µM,,> 100 µM,,,
Cc1cc2nc(N3C(=O)/C(=C/c4ccc(N(C)C)cc4)N=C3c3ccccc3)sc2cc1C,,> 100 µM,> 100 µM,53 µM,,> 100 µM,> 100 µM,65.3 µM,> 100 µM,> 100 µM,57.8 µM,,,> 100 µM
CSc1c(C#N)c(S)[nH]c(=O)c1C#N,98 µM,> 100 µM,,,> 100 µM,> 100 µM,> 100 µM,> 100 µM,> 100 µM,> 100 µM,> 100 µM,,,> 100 µM
S=C(N1CCN(c2ccccc2)CC1)N1CCN(c2ccccc2)CC1,> 100 µM,> 100 µM,> 100 µM,,> 100 µM,> 100 µM,> 100 µM,> 100 µM,> 100 µM,> 100 µM,> 100 µM,,,> 100 µM
N#Cc1c(O)c2ccccc2[nH]c1=O,> 100 µM,> 100 µM,> 100 µM,> 100 µM,> 100 µM,,> 100 µM,> 100 µM,> 100 µM,> 100 µM,> 100 µM,,,
COc1c2c(cc3c1C(=O)Cc1ccc4c(c1CN(C)CC3)OCO4)OCO2,,> 100 µM,> 100 µM,> 100 µM,> 100 µM,> 100 µM,> 100 µM,> 100 µM,> 100 µM,,> 100 µM,,,
O=c1c2c(c1=O)-c1ccccc1CN2,> 100 µM,> 100 µM,> 100 µM,> 100 µM,> 100 µM,> 100 µM,> 100 µM,> 100 µM,> 100 µM,,> 100 µM,,,
O=c1c2ccccc2[nH]c2c(Cl)cc(Cl)c(N3CCCCC3)c12,81 µM,> 100 µM,> 100 µM,,76.5 µM,,> 100 µM,59.1 µM,62.4 µM,,55.8 µM,,,
